Laboratory results reported in patent publication US20220324835A1 (Nurix Therapeutics, Inc., priority 2018, published 2022).
Where two headings read alike, the source gives them in different places.

What was measured:
Format in all cases: cell-based
[1] = tested on: primary human total T-cells; test: T-cell activation assessed by CD69 expression
Procedure, shortened: (§1)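 Readouts are fold change versus compound-free cells under the same stimulation: plate-bound anti-CD3 (OKT3, 10 μg/mL coating) alone or with soluble anti-CD28 at 5 μg/mL, for 48 h. Isolated human total T cells (1×10^5/well) got inhibitor 1 h beforehand at concentrations such as 10, 1.11 or 0.123 μM. Measured: GM-CSF/IFNγ/TNFα secretion, surface CD69, proliferation by dye dilution.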

[2] = tested on: primary human total T-cells; test: T-cell activation assessed by cytokine secretion (GM-CSF, IFNγ, TNFα)
Procedure, shortened: as §1

primary human NK cells = test: NK cell activation assessed by cytokine secretion (coculture with K562 NucRed target cells); conditions: for fold induction at 0.625 µM: 0.625 μM compound; for fold induction at 2.5 µM: 2.5 μM compound
Procedure, shortened: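 Primary NK cells from donor PBMC, IL-2 (60 ng/mL) overnight, then Cbl-b inhibitor (e.g. 10, 1 or 0.1 μM; DMSO <0.1%) for 1 h before 6 h coculture with K562 NucRed at effector:target ratios such as 5:1, 1:1 or 1:5. Supernatant IFNγ, TNFα, MIP1β measured by ELISA or Luminex; fold change over inhibitor-free baseline, >2.0-fold positive.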

T-cell = test: CD25 cell surface staining on T-cells stimulated with anti-CD3 antibody alone (Biological Example 2); conditions: primary human total T-cells, baseline = anti-CD3/anti-CD28 stimulated cells without inhibitor, read-out: CD25 staining, Anti-CD3 stimulation, fold change over baseline; for fold induction at 1 µM: 1 μM compound; for fold induction at 8 µM: 8 μM compound
[3] = CD3/CD28 stimulation, CD4 T-cells, read-out: % CD69+ (CD4)
[4] = CD3/CD28 stimulation, CD8 T-cells, read-out: % CD69+ (CD8)
[5] = CD3 alone stimulation, CD4 T-cells, read-out: % CD69+ (CD4)
[6] = CD3 alone stimulation, CD8 T-cells, read-out: % CD69+ (CD8)
[7] = CD3/CD28 stimulation, read-out: GM-CSF secretion
[8] = CD3/CD28 stimulation, read-out: IFNγ secretion
[9] = CD3/CD28 stimulation, read-out: TNFα secretion
[10] = CD3 alone stimulation, read-out: GM-CSF secretion
[11] = CD3 alone stimulation, read-out: IFNγ secretion
[12] = CD3 alone stimulation, read-out: TNFα secretion
[13] = K562, NK cells cocultured with K562 NucRed, 1:1 E/T, read-out: IFNγ secretion, fold change over baseline
[14] = K562, NK cells cocultured with K562 NucRed, 1:1 E/T, read-out: TNFα secretion, fold change over baseline
[15] = K562, NK cells cocultured with K562 NucRed, 1:1 E/T, 10 μM compound, read-out: IFNγ secretion, fold change over baseline
[16] = K562, NK cells cocultured with K562 NucRed, 1:1 E/T, 10 μM compound, read-out: TNFα secretion, fold change over baseline

Structure (SMILES) | fold induction at 1.11 µM [1, 3] | fold induction at 10 µM [1, 3] | fold induction at 1.11 µM [1, 4] | fold induction at 10 µM [1, 4] | fold induction at 1.11 µM [1, 5] | fold induction at 10 µM [1, 5] | fold induction at 1.11 µM [1, 6] | fold induction at 10 µM [1, 6] | fold induction at 1.11 µM [2, 7] | fold induction at 1.11 µM [2, 8] | fold induction at 1.11 µM [2, 9] | fold induction at 10 µM [2, 7] | fold induction at 10 µM [2, 8] | fold induction at 10 µM [2, 9] | fold induction at 1.11 µM [2, 10] | fold induction at 1.11 µM [2, 11] | fold induction at 1.11 µM [2, 12] | fold induction at 10 µM [2, 10] | fold induction at 10 µM [2, 11] | fold induction at 10 µM [2, 12] | further results
Cn1cnnc1C(F)(F)[C@](C)(F)c1cccc(N2Cc3c(cc(C(=O)N4CC[C@H](O)C4)cc3C(F)(F)F)C2=O)c1 [Compound 438, 6-((S)-3-hydroxypyrrolidine-1-carbonyl)-2-(3-((R)-1,1,2-trifluoro-1-(4-methyl-4H-1,2,4-triazol-3-yl)propan-2-yl)phenyl)-4-(trifluoromethyl)isoindolin-1-one] | 1.2 to 1.4 | 1.4 to 1.6 | ≤ 1.2 | 1.2 to 1.4 | 1.2 to 1.4 | > 1.6 | ≤ 1.2 | 1.2 to 1.4 | 1.51 to 2 | < 2 | ≤ 1.5 | 2.01 to 4 | 2.01 to 3 | 2.01 to 4 | ≤ 1.5 | < 2 | 2.01 to 4 | 2.01 to 4 | 2.01 to 3 | 1.51 to 2 | fold induction at 1 µM (primary human NK cells; K562, 1:1 E/T, read-out: IFNγ secretion): < 1; fold induction at 1 µM (primary human NK cells; K562, 1:1 E/T, read-out: MIP1β secretion): < 1; fold induction at 1 µM (primary human NK cells; K562, 1:1 E/T, read-out: TNFα secretion): 1.01 to 2; fold induction at 10 µM (primary human NK cells; K562, 1:1 E/T, 10 μM, read-out: IFNγ secretion): < 1; fold induction at 10 µM (primary human NK cells; K562, 1:1 E/T, 10 μM, read-out: MIP1β secretion): < 1; fold induction at 10 µM (primary human NK cells; K562, 1:1 E/T, 10 μM, read-out: TNFα secretion): 1.01 to 2; fold induction at 1 µM (primary human NK cells; K562, 5:1 E/T, read-out: IFNγ secretion): < 1; fold induction at 1 µM (primary human NK cells; K562, 5:1 E/T, read-out: MIP1β secretion): < 1; fold induction at 1 µM (primary human NK cells; K562, 5:1 E/T, read-out: TNFα secretion): 1.01 to 2; fold induction at 10 µM (primary human NK cells; K562, 5:1 E/T, 10 μM, read-out: IFNγ secretion): 1.01 to 2; fold induction at 10 µM (primary human NK cells; K562, 5:1 E/T, 10 μM, read-out: MIP1β secretion): 1.01 to 2; fold induction at 10 µM (primary human NK cells; K562, 5:1 E/T, 10 μM, read-out: TNFα secretion): 1.01 to 2; fold induction at 0.625 µM (primary human NK cells; [13]): 1.01 to 2; fold induction at 0.625 µM (primary human NK cells; [14]): 1.01 to 2; fold induction at 2.5 µM (primary human NK cells; [13]): 1.01 to 2; fold induction at 2.5 µM (primary human NK cells; [14]): 1.01 to 2; fold induction at 10 µM (primary human NK cells; [15]): 2.01 to 5; fold induction at 10 µM (primary human NK cells; [16]): 1.01 to 2; fold induction at 1 µM (T-cell): 0.801 to 1; fold induction at 8 µM (T-cell): > 1
C[C@H](Cc1nncn1C)c1cccc(N2Cc3c(cc(CN4CC(O)C4)cc3C(F)(F)F)C2=O)c1 [Compound 393, (R)-6-((3-hydroxyazetidin-1-yl)methyl)-2-(3-(1-(4-methyl-4H-1,2,4-triazol-3-yl)propan-2-yl)phenyl)-4-(trifluoromethyl)isoindolin-1-one] | ≤ 1.2 | 1.2 to 1.4 | ≤ 1.2 | ≤ 1.2 | 1.2 to 1.4 | 1.2 to 1.4 | ≤ 1.2 | ≤ 1.2 | ≤ 1.5 | 2.01 to 3 | ≤ 1.5 | 1.51 to 2 | > 4 | 1.51 to 2 | ≤ 1.5 | < 2 | ≤ 1.5 | ≤ 1.5 | < 2 | ≤ 1.5 | fold induction at 0.625 µM (primary human NK cells; [13]): 1.01 to 2; fold induction at 0.625 µM (primary human NK cells; [14]): 1.01 to 2; fold induction at 2.5 µM (primary human NK cells; [13]): 2.01 to 5; fold induction at 2.5 µM (primary human NK cells; [14]): 2.01 to 5; fold induction at 10 µM (primary human NK cells; [15]): 2.01 to 5; fold induction at 10 µM (primary human NK cells; [16]): 2.01 to 5; fold induction at 1 µM (T-cell): > 1; fold induction at 8 µM (T-cell): > 1
C[C@H](c1cc2c(c(C(F)(F)F)c1)CN(c1cccc(C3(Cc4nncn4C)COC3)c1)C2=O)N1CC[C@H](F)C1 [Compound 413, 6-((R)-1-((S)-3-fluoropyrrolidin-1-yl)ethyl)-2-(3-(3-((4-methyl-4H-1,2,4-triazol-3-yl)methyl)oxetan-3-yl)phenyl)-4-(trifluoromethyl)isoindolin-1-one] | 1.4 to 1.6 | > 1.6 | 1.2 to 1.4 | 1.2 to 1.4 | 1.4 to 1.6 | > 1.6 | 1.2 to 1.4 | 1.4 to 1.6 | 2.01 to 4 | < 2 | 2.01 to 4 | > 4 | 3.01 to 4 | 2.01 to 4 | 1.51 to 2 | 2.01 to 3 | 1.51 to 2 | 2.01 to 4 | > 4 | 1.51 to 2 | fold induction at 0.625 µM (primary human NK cells; [13]): 2.01 to 5; fold induction at 0.625 µM (primary human NK cells; [14]): 2.01 to 5; fold induction at 2.5 µM (primary human NK cells; [13]): > 5; fold induction at 2.5 µM (primary human NK cells; [14]): 2.01 to 5; fold induction at 10 µM (primary human NK cells; [15]): > 5; fold induction at 10 µM (primary human NK cells; [16]): 2.01 to 5; fold induction at 1 µM (T-cell): > 1; fold induction at 8 µM (T-cell): > 1
COC1CN(Cc2cc3c(c(C(F)(F)F)c2)CN(c2cccc([C@@](C)(F)C(F)(F)c4nncn4C)c2)C3=O)C1 [Compound 452, (R)-6-((3-methoxyazetidin-1-yl)methyl)-2-(3-(1,1,2-trifluoro-1-(4-methyl-4H-1,2,4-triazol-3-yl)propan-2-yl)phenyl)-4-(trifluoromethyl)isoindolin-1-one] | 1.2 to 1.4 | 1.4 to 1.6 | 1.2 to 1.4 | 1.2 to 1.4 | 1.4 to 1.6 | > 1.6 | 1.2 to 1.4 | 1.4 to 1.6 | 2.01 to 4 | < 2 | 1.51 to 2 | 2.01 to 4 | 2.01 to 3 | 2.01 to 4 | 1.51 to 2 | 3.01 to 4 | ≤ 1.5 | 2.01 to 4 | 3.01 to 4 | 1.51 to 2 | fold induction at 0.625 µM (primary human NK cells; [13]): > 5; fold induction at 0.625 µM (primary human NK cells; [14]): 1.01 to 2; fold induction at 2.5 µM (primary human NK cells; [13]): > 5; fold induction at 2.5 µM (primary human NK cells; [14]): 2.01 to 5; fold induction at 10 µM (primary human NK cells; [15]): > 5; fold induction at 10 µM (primary human NK cells; [16]): 2.01 to 5; fold induction at 1 µM (T-cell): > 1; fold induction at 8 µM (T-cell): > 1
Cn1cnnc1C(F)(F)[C@](C)(F)c1cccc(N2Cc3c(cc(CN4CC[C@@H](F)C4)cc3C(F)(F)F)C2=O)c1 [Compound 450] | 1.2 to 1.4 | 1.4 to 1.6 | 1.2 to 1.4 | 1.2 to 1.4 | 1.4 to 1.6 | > 1.6 | 1.2 to 1.4 | 1.4 to 1.6 | 2.01 to 4 | 2.01 to 3 | 2.01 to 4 | > 4 | > 4 | 2.01 to 4 | 1.51 to 2 | < 2 | 1.51 to 2 | 2.01 to 4 | < 2 | 1.51 to 2 | fold induction at 0.625 µM (primary human NK cells; [13]): 2.01 to 5; fold induction at 0.625 µM (primary human NK cells; [14]): 1.01 to 2; fold induction at 2.5 µM (primary human NK cells; [13]): > 5; fold induction at 2.5 µM (primary human NK cells; [14]): 2.01 to 5; fold induction at 10 µM (primary human NK cells; [15]): > 5; fold induction at 10 µM (primary human NK cells; [16]): 2.01 to 5; fold induction at 1 µM (T-cell): > 1; fold induction at 8 µM (T-cell): > 1
